Species on record: Rattus norvegicus
Type: toxicity, organism-based, Sprague-Dawley
Details: in vivo, po, 24 h, route oral GAVAGE, time 1 day, vehicle 100 % WATER; for ABSOLUTE BASOPHIL / ABSOLUTE EOSINOPHIL / ABSOLUTE LYMPHOCYTE / ABSOLUTE MONOCYTE / BASOPHIL / EOSINOPHIL / ERYTHROCYTE COUNT / HEMATOCRIT / HEMOGLOBIN / LEUKOCYTE COUNT / LYMPHOCYTE / MEAN CORPUSCULAR HEMOGLOBIN / MEAN CORPUSCULAR HEMOGLOBIN CONCENTRATION / MEAN CORPUSCULAR VOLUME / MONOCYTE / NEUTROPHIL / PLATELET COUNT: tissue Blood; for ALANINE AMINOTRANSFERASE / ALBUMIN / ALKALINE PHOSPHATASE / ASPARTATE AMINOTRANSFERASE / BLOOD UREA NITROGEN / CARBON DIOXIDE / CHLORIDE / CHOLESTEROL / CREATINE PHOSPHOKINASE / CREATININE / GLUCOSE / LACTATE DEHYDROGENASE / LIPASE / PHOSPHORUS / POTASSIUM / SODIUM / TOTAL BILIRUBIN / TOTAL PROTEIN / URIC ACID: tissue Plasma
[1] = 0 mg/kg, vehicle control, dose level Control

Description: DrugMatrix - Regimen: Single

COCCc1ccc(OCC(O)CNC(C)C)cc1 (configuration not stated) [METOPROLOL]
ABSOLUTE BASOPHIL [1]: 63.3 cells/µL | ABSOLUTE EOSINOPHIL [1]: 66.7 cells/µL | ABSOLUTE LYMPHOCYTE [1]: 8010 cells/µL | ABSOLUTE MONOCYTE [1]: 240 cells/µL | BASOPHIL [1]: 0.6% | EOSINOPHIL [1]: 0.6% | ERYTHROCYTE COUNT [1]: 6.25 x10E6/uL | HEMATOCRIT [1]: 40.47% | HEMOGLOBIN [1]: 12.83 G/DL | LEUKOCYTE COUNT [1]: 10.19 x10E3/uL | LYMPHOCYTE [1]: 78.7% | MEAN CORPUSCULAR HEMOGLOBIN [1]: 20.53 pg | MEAN CORPUSCULAR HEMOGLOBIN CONCENTRATION [1]: 31.73 G/DL | MEAN CORPUSCULAR VOLUME [1]: 64.67 fL | MONOCYTE [1]: 2.5% | NEUTROPHIL [1]: 17.07% | PLATELET COUNT [1]: 1297 x10E3/uL | ALANINE AMINOTRANSFERASE [1]: 32.67 u/L | ALBUMIN [1]: 3.9 G/DL | ALKALINE PHOSPHATASE [1]: 374 u/L | ASPARTATE AMINOTRANSFERASE [1]: 64.33 u/L | BLOOD UREA NITROGEN [1]: 14 mg/dL | CARBON DIOXIDE [1]: 45.67 mmol/L | CHLORIDE [1]: 103 MEQ/L | CHOLESTEROL [1]: 82.67 mg/dL | CREATINE PHOSPHOKINASE [1]: 216.33 u/L | CREATININE [1]: 0.17 mg/dL | GLUCOSE [1]: 161.33 mg/dL | LACTATE DEHYDROGENASE [1]: 103.67 u/L | LIPASE [1]: 8.67 u/L | PHOSPHORUS [1]: 11 mg/dL | POTASSIUM [1]: 6.83 MEQ/L | SODIUM [1]: 144.67 MEQ/L | TOTAL BILIRUBIN [1]: 0.27 mg/dL | TOTAL PROTEIN [1]: 6.27 G/DL | URIC ACID [1]: 0.67 mg/dL | ABSOLUTE BASOPHIL (120 mg/kg, dose level High): 66.7 cells/µL | ABSOLUTE EOSINOPHIL (120 mg/kg, dose level High): 90 cells/µL | ABSOLUTE LYMPHOCYTE (120 mg/kg, dose level High): 8230 cells/µL | ABSOLUTE MONOCYTE (120 mg/kg, dose level High): 290 cells/µL | BASOPHIL (120 mg/kg, dose level High): 0.6% | EOSINOPHIL (120 mg/kg, dose level High): 0.9% | ERYTHROCYTE COUNT (120 mg/kg, dose level High): 6.76 x10E6/uL | HEMATOCRIT (120 mg/kg, dose level High): 44.17% | HEMOGLOBIN (120 mg/kg, dose level High): 14.1 G/DL | LEUKOCYTE COUNT (120 mg/kg, dose level High): 10.39 x10E3/uL | LYMPHOCYTE (120 mg/kg, dose level High): 79.03% | MEAN CORPUSCULAR HEMOGLOBIN (120 mg/kg, dose level High): 20.87 pg | MEAN CORPUSCULAR HEMOGLOBIN CONCENTRATION (120 mg/kg, dose level High): 31.9 G/DL | MEAN CORPUSCULAR VOLUME (120 mg/kg, dose level High): 65.33 fL | MONOCYTE (120 mg/kg, dose level High): 2.8% | NEUTROPHIL (120 mg/kg, dose level High): 16.1% | PLATELET COUNT (120 mg/kg, dose level High): 1170 x10E3/uL | ALANINE AMINOTRANSFERASE (120 mg/kg, dose level High): 33.33 u/L | ALBUMIN (120 mg/kg, dose level High): 3.83 G/DL | ALKALINE PHOSPHATASE (120 mg/kg, dose level High): 431 u/L | ASPARTATE AMINOTRANSFERASE (120 mg/kg, dose level High): 59 u/L | BLOOD UREA NITROGEN (120 mg/kg, dose level High): 13 mg/dL | CARBON DIOXIDE (120 mg/kg, dose level High): 38.67 mmol/L | CHLORIDE (120 mg/kg, dose level High): 103.33 MEQ/L | CHOLESTEROL (120 mg/kg, dose level High): 74 mg/dL | CREATINE PHOSPHOKINASE (120 mg/kg, dose level High): 229.33 u/L | CREATININE (120 mg/kg, dose level High): 0.3 mg/dL | GLUCOSE (120 mg/kg, dose level High): 178 mg/dL | LACTATE DEHYDROGENASE (120 mg/kg, dose level High): 77.67 u/L | LIPASE (120 mg/kg, dose level High): 8 u/L | PHOSPHORUS (120 mg/kg, dose level High): 12.3 mg/dL | POTASSIUM (120 mg/kg, dose level High): 6.47 MEQ/L | SODIUM (120 mg/kg, dose level High): 144 MEQ/L | TOTAL BILIRUBIN (120 mg/kg, dose level High): 0.23 mg/dL | TOTAL PROTEIN (120 mg/kg, dose level High): 6.2 G/DL | URIC ACID (120 mg/kg, dose level High): 0.9 mg/dL

Source: ChEMBL document CHEMBL3885881, “DrugMatrix”
